In US11987582B2, “Maleate salts of triazolopyrazine derivatives, compositions, methods of use, and processes of manufacturing the same” (ABION Inc, priority 2021, dated 2024):
Like-named read-outs stand apart in the source and are kept apart here.

Experiments:
[1] = PK parameters in plasma after single administration; assay type: in vivo, Wistar rats; details: for AUC(0-inf) / AUC(0-t) / Cmax / Tmax: Wistar, rat, plasma
[2] = thermodynamic solubility in formulation vehicles (phosphate buffer pH 7.4 with excipients); assay type: physicochemical; details: thermodynamic from solid
Experimental: In view of developing a formulation suitable for parenteral administration, the quantitative solubility of Chemical Formula land the Chemical Formula 2 were determined in phosphate buffer pH 7.4, supplemented with solubility-enhancing excipients. The target concentration is 1-1.3 mg/mL.
Based on the qualitative solubility result determined for the PBS formulation vehicle containing Transcutol (Gattefossé, France) and TPGS (tocopherol polyethylene glycol succinate), the quantitative solubility of the compound of Chemical Formula 1 and the compound of Chemical Formula 2 was determined in those vehicles to assess the maximum solubility in those vehicles. The thermodynamic solubility was then determined in PBS buffer containing Transcutol (50% and 10%) and TPGS (20% and 10%) and also in the formulation vehicles containing PEG 400 (50%, with and without presence of 2% DMSO). Suspensions of the compound of Chemical Formula 1 and the compound of Chemical Formula 2 were prepared in the selected vehicles with a compound of Chemical Formula 1 concentration of about 3.5-5 mg/mL. After incubation for 24 hours at room temperature, the solids and liquid phases were separated. The concentration of API in solution was determined by HPLC analysis. The results can be found in FIG. 6.

[3] = system: lung cancer cell line EBC-1; assay: cancer cell proliferation inhibitory experiment (SRB); assay type: cell-based, human; details: EBC-1 cell line
Experimental: The following exemplary experimental protocol was performed to test the activity of the maleate salt compounds described herein.
An RPMI 1640 cell culture medium, fetal bovine serum (FBS) and trypsin were purchased from GIBCO Co., Ltd. (Grand Island, N.Y.), and sodium hydrogencarbonate, amphotericin B and gentamycin were used as signamic medical products. In addition, reagents such as sulforhodamine (SRB) B, Trisma Base, and trichloroacetic acid (TCA), which were reagents used in a cytotoxicity measurement experiment, were purchased from Sigma Chemical Co., Ltd. For MTS analysis, a Celltiter 96 Aqueous Non-Radioactive Cell Proliferation Assay product was purchased from Promega Co., Ltd. Further, a T-25 culture container used for cell culture, a 96-well plate and other disposable glass used for cell culture were obtained from Folkon (Lincoln Park, N.J.) products.
A drug used in the experiment was diluted as an experimental medium to a desired concentration in the test, and the final dimethylsulfoxide concentration was 0.5% or less.
Cancer cell lines used in the experiment were human-derived cancer cell lines, and a lung cancer cell line EBC-1. RPMI 1640 medium with 10% fetal bovine serum (FBS) was used and cultured in an incubator of 37° C. and 5% CO2 and subcultured once by 3 to 4 days.
Specifically, after the culture with the compound of the present disclosure was terminated, the culture solution was removed, and a cold TCA solution added to each well. The cells were left at 4° C. for 1 hour to be fixed. The TCA solution was removed, and the cells were dried at room temperature, incubated with a solution obtained by dissolving 0.4% SRB in a 1% acetic acid solution, left at room temperature for 30 minutes, and then stained. Extra SRB which was not bound to the cells was washed with a 1% acetic acid solution, and the SRB was eluted by adding a […] tris buffer solution (trisma base; unbuffered) of pH 10.3 to 10.5 to the stained cells.

[4] = PK parameters after bid (twice a day) administration; assay type: in vivo; details: for Cmax1 / Tmax1: after first daily dosing; for Cmax2 / Tmax2: after second daily dosing; for AUC / AUC(0-t): in vivo; for AUC: read-out: AUC(12-24 h)
Text: FIG. 10 and Table 4 show the PK properties of the compound of Chemical Formula 2 administered twice a day (bid).
FIG. 11 and Table 5 show the PK properties of the compound of Chemical Formula 1 administered twice per day.

[5] = long-term stability study, chemical purity by HPLC; assay type: physicochemical; details: up to 15 months, in words
Experimental: The physical and chemical stability study was performed on the compounds of Chemical Formula 2 and Chemical Formula 1 (for reference purposes). The long-term stability study was conducted at defined temperatures and relative humidity levels (25° C./60% relative humidity (RH) and 40° C./75% RH). At regular intervals, a solid sample was analyzed by XRPD, TGMS and HPLC.
The results of the chemical purity determination for the compounds of Chemical Formula 1 and Chemical Formula 2 after 1-, 3- and 15-month exposure to 25° C./60% RH and 40° C./75% RH is presented in FIGS. 4 and 5.

**Q.** With CN1CCN(Cc2ccc(-c3cnc(N4CCOC(Cn5nnc6ncc(-c7cnn(C)c7)nc65)C4)nc3)cc2)CC1 (stereo not drawn) [Chemical Formula 1] as the molecule, how does the AUClast/Dose ([1]; 5 mg/kg IV) read?
**A.** 1410 kg·nM·h/mg

**Q.** What about the “AUC∞/Dose” value ([1]; 5 mg/kg IV) of the same molecule?
**A.** 1440 kg·nM·h/mg

**Q.** And the Cl ([1]; 5 mg/kg IV)?
**A.** 0.000705 mg/h/nM/kg

**Q.** And the Vss ([1]; 5 mg/kg IV)?
**A.** 0.00347 mg/nM/kg

**Q.** What about the Vz ([1]; 5 mg/kg IV) of the same molecule?
**A.** 0.00471 mg/nM/kg

**Q.** And the AUClast/Dose ([1]; 5 mg/kg PO)?
**A.** 551 kg·nM·h/mg

**Q.** What about the “AUC∞/Dose” value ([1]; 5 mg/kg PO) of the same molecule?
**A.** 562 kg·nM·h/mg

**Q.** What about the F ([1]; 5 mg/kg PO) of the same molecule?
**A.** 39.0%

**Q.** What about the AUClast/Dose ([1]; 20 mg/kg PO) of the same molecule?
**A.** 488 kg·nM·h/mg

**Q.** And the “AUC∞/Dose” value ([1]; 20 mg/kg PO)?
**A.** 504 kg·nM·h/mg

**Q.** What about the F ([1]; 20 mg/kg PO) of the same molecule?
**A.** 35.0%

**Q.** And the AUC(0-inf) ([1]; 5 mg/kg IV)?
**A.** 7.2 µM·h

**Q.** What about the AUC(0-t) ([1]; 5 mg/kg IV) of the same molecule?
**A.** 7.06 µM·h

**Q.** And the AUC(0-inf) ([1]; 5 mg/kg PO)?
**A.** 2.81 µM·h

**Q.** What about the AUC(0-t) ([1]; 5 mg/kg PO) of the same molecule?
**A.** 2.75 µM·h

**Q.** And the Cmax ([1]; 5 mg/kg PO)?
**A.** 343 nM

**Q.** And the Tmax ([1]; 5 mg/kg PO)?
**A.** 4 h

**Q.** What about the AUC(0-inf) ([1]; 20 mg/kg PO) of the same molecule?
**A.** 10.1 µM·h

**Q.** And the AUC(0-t) ([1]; 20 mg/kg PO)?
**A.** 9.76 µM·h

**Q.** What about the Cmax ([1]; 20 mg/kg PO) of the same molecule?
**A.** 1080 nM

**Q.** What about the Tmax ([1]; 20 mg/kg PO) of the same molecule?
**A.** 4 h

**Q.** And the solubility at 24 h ([2]; PBS formulation vehicle with 10% TPGS, pH 7.4, aqueous with cosolvent or surfactant or cyclodextrin, PBS vehicle containing 10% TPGS, 24 hours at room temperature)?
**A.** ≥ 1000 µg/mL

**Q.** What about the solubility at 24 h ([2]; PBS formulation vehicle with 10% Transcutol, pH 7.4, aqueous with cosolvent or surfactant or cyclodextrin, PBS vehicle with only 10% Transcutol, 24 hours at room temperature) of the same molecule?
**A.** ~100 µg/mL

**Q.** What about the solubility at 24 h ([2]; PBS formulation vehicle with 20% TPGS, pH 7.4, aqueous with cosolvent or surfactant or cyclodextrin, PBS vehicle containing 20% TPGS, 24 hours at room temperature) of the same molecule?
**A.** ≥ 1000 µg/mL

**Q.** What about the solubility at 24 h ([2]; PBS formulation vehicle with 50% Transcutol, pH 7.4, aqueous with cosolvent or surfactant or cyclodextrin, PBS vehicle containing 50% Transcutol, 24 hours at room temperature) of the same molecule?
**A.** ≥ 1000 µg/mL

**Q.** What about the solubility at 24 h ([2]; formulation vehicles containing PEG 400, pH 7.4, aqueous with cosolvent or surfactant or cyclodextrin, vehicles containing PEG 400, 24 hours at room temperature) of the same molecule?
**A.** ~300 µg/mL

**Q.** And the GI50 [3]?
**A.** 8.17 nM

**Q.** What about the “AUC(0-12 h)/Dose” value ([4]; 5 mg/kg IV (10 mg/kg/day)) of the same molecule?
**A.** 1070 kg·nM·h/mg

**Q.** And the “AUC(12-24 h)/Dose” value ([4]; 5 mg/kg IV (10 mg/kg/day))?
**A.** 1480 kg·nM·h/mg

**Q.** And the AUClast/Dose ([4]; 5 mg/kg IV (10 mg/kg/day))?
**A.** 1410 kg·nM·h/mg

**Q.** What about the Cl ([4]; 5 mg/kg IV (10 mg/kg/day)) of the same molecule?
**A.** 0.000733 mg/h/nM/kg

**Q.** And the Vss ([4]; 5 mg/kg IV (10 mg/kg/day))?
**A.** 0.0076 mg/nM/kg

**Q.** And the Vz ([4]; 5 mg/kg IV (10 mg/kg/day))?
**A.** 0.00265 mg/nM/kg

**Q.** And the “AUC(0-12 h)/Dose” value ([4]; 5 mg/kg PO (10 mg/kg/day))?
**A.** 487 kg·nM·h/mg

**Q.** What about the “AUC(12-24 h)/Dose” value ([4]; 5 mg/kg PO (10 mg/kg/day)) of the same molecule?
**A.** 490 kg·nM·h/mg

**Q.** And the AUClast/Dose ([4]; 5 mg/kg PO (10 mg/kg/day))?
**A.** 488 kg·nM·h/mg

**Q.** And the F ([4]; 5 mg/kg PO (10 mg/kg/day))?
**A.** 34.6%

**Q.** And the Cmax1 ([4]; 5 mg/kg PO (10 mg/kg/day))?
**A.** 564 nM

**Q.** What about the Tmax1 ([4]; 5 mg/kg PO (10 mg/kg/day)) of the same molecule?
**A.** 3-4$ h

**Q.** What about the Cmax2 ([4]; 5 mg/kg PO (10 mg/kg/day)) of the same molecule?
**A.** 488 nM

**Q.** And the Tmax2 ([4]; 5 mg/kg PO (10 mg/kg/day))?
**A.** 13-14$ h

**Q.** What about the “AUC(0-12 h)/Dose” value ([4]; 20 mg/kg PO (40 mg/kg/day)) of the same molecule?
**A.** 395 kg·nM·h/mg

**Q.** And the “AUC(12-24 h)/Dose” value ([4]; 20 mg/kg PO (40 mg/kg/day))?
**A.** 313 kg·nM·h/mg

**Q.** What about the AUClast/Dose ([4]; 20 mg/kg PO (40 mg/kg/day)) of the same molecule?
**A.** 318 kg·nM·h/mg

**Q.** And the F ([4]; 20 mg/kg PO (40 mg/kg/day))?
**A.** 22.6%

**Q.** And the Cmax1 ([4]; 20 mg/kg PO (40 mg/kg/day))?
**A.** 821 nM

**Q.** And the Tmax1 ([4]; 20 mg/kg PO (40 mg/kg/day))?
**A.** 1-3$ h

**Q.** And the Cmax2 ([4]; 20 mg/kg PO (40 mg/kg/day))?
**A.** 1000 nM

**Q.** What about the Tmax2 ([4]; 20 mg/kg PO (40 mg/kg/day)) of the same molecule?
**A.** 12.083-16$ h

**Q.** What about the AUC ([4]; 5 mg/kg IV (10 mg/kg/day)) of the same molecule?
**A.** 7.38 µM·h

**Q.** What about the AUC ([4]; 5 mg/kg PO (10 mg/kg/day)) of the same molecule?
**A.** 2.45 µM·h

**Q.** What about the AUC ([4]; 20 mg/kg PO (40 mg/kg/day)) of the same molecule?
**A.** 6.26 µM·h

**Q.** And the AUC(0-t) ([4]; iv, 5 mg/kg, 5 mg/kg IV (10 mg/kg/day), read-out: AUC(0-12 h))?
**A.** 5.36 µM·h

**Q.** What about the AUC(0-t) ([4]; iv, 5 mg/kg, 5 mg/kg IV (10 mg/kg/day), read-out: AUClast) of the same molecule?
**A.** 14.1 µM·h

**Q.** And the AUC(0-t) ([4]; po, 5 mg/kg, 5 mg/kg PO (10 mg/kg/day), read-out: AUC(0-12 h))?
**A.** 2.44 µM·h

**Q.** What about the AUC(0-t) ([4]; po, 5 mg/kg, 5 mg/kg PO (10 mg/kg/day), read-out: AUClast) of the same molecule?
**A.** 4.88 µM·h

**Q.** And the AUC(0-t) ([4]; po, 20 mg/kg, 20 mg/kg PO (40 mg/kg/day), read-out: AUC(0-12 h))?
**A.** 7.9 µM·h

**Q.** And the AUC(0-t) ([4]; po, 20 mg/kg, 20 mg/kg PO (40 mg/kg/day), read-out: AUClast)?
**A.** 12.7 µM·h

**Q.** What about the chemical degradation ([5]; 25° C./60% RH) of the same molecule?
**A.** partial chemical degradation

**Q.** What about the chemical degradation ([5]; 40° C./75% RH) of the same molecule?
**A.** more degradation
